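Following 48 hours of exposure in 96-well plates, responses at five concentrations were used to interpolate endpoints linearly. TGI: concentration producing complete growth inhibition.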 Where only a bound is given, the exact number is not on record here.

Among the test systems are ACHN renal; HS 578T breast; HT29 colon; MDA-N; OVCAR-4 ovarian; NCI-H460 lung; SW-620 colon; K-562 leukemia; MCF7 breast; SK-OV-3 ovarian; NCI-H522 lung.
What all share (experiment): NCI tumour cell line growth inhibition, 48 h

Take `CSc1cc(Cl)c(C)cc1S(=O)(=O)NC(=O)NNc1ccc(F)cc1`: the TGI with ACHN renal, with HS 578T breast, in the experiment on HT29 colon, with MDA-N, in the experiment with OVCAR-4 ovarian and in the experiment on NCI-H460 lung was more than 100 µM throughout. In addition, the TGI in the experiment on SW-620 colon, with K-562 leukemia, in the experiment with MCF7 breast, in the experiment on SK-OV-3 ovarian and in the experiment on NCI-H522 lung was more than 100 µM each time.

`CC(C)=CC1C(C(=O)Oc2ccccc2C(C)C)C1(C)C` (stereo not given): the TGI in the experiment with ACHN renal is 33 µM; in the experiment with HS 578T breast, more than 100 µM; in the experiment on HT29 colon, 36.9 µM; with MDA-N it was 90 µM; in the experiment with OVCAR-4 ovarian, more than 100 µM; with NCI-H460 lung it was 47 µM. Further, the TGI in the experiment on SW-620 colon is 66 µM; in the experiment with K-562 leukemia, 83.8 µM; in the experiment with MCF7 breast it was 38 µM; in the experiment on SK-OV-3 ovarian, more than 100 µM; in the experiment with NCI-H522 lung, 35.5 µM.

For `CCOC(=O)/C=C(/C(=O)OCC)n1cc(C)c(=O)n(Cc2cnnn2COCCOC(C)=O)c1=O`, the TGI with ACHN renal is 16.5 µM; in the experiment with HS 578T breast it was 74 µM; in the experiment with HT29 colon it was 27.6 µM; with MDA-N it was 48.5 µM; in the experiment with OVCAR-4 ovarian, 47 µM; in the experiment on NCI-H460 lung, more than 61.5 µM. The TGI with SW-620 colon was more than 55.6 µM; with K-562 leukemia, 24.8 µM; in the experiment on MCF7 breast, 36 µM; with SK-OV-3 ovarian it was more than 100 µM; in the experiment with NCI-H522 lung, 3.65 µM.

Turning to `O=P(O)(O)c1ccc(-c2ccc(I)cc2)cc1`, the TGI with ACHN renal, with HS 578T breast, in the experiment with HT29 colon, in the experiment on MDA-N, with OVCAR-4 ovarian and in the experiment on NCI-H460 lung was more than 100 µM throughout. Further, the TGI in the experiment with SW-620 colon, with K-562 leukemia, in the experiment with MCF7 breast, in the experiment on SK-OV-3 ovarian and with NCI-H522 lung was more than 100 µM each time.

As for `CC(=O)OCC1OC(n2cnc3nc(Br)[nH]c(=O)c32)C(OC(C)=O)C1OC(C)=O` (stereo not given), the TGI in the experiment with ACHN renal, with HS 578T breast, with HT29 colon, with MDA-N, with OVCAR-4 ovarian and in the experiment on NCI-H460 lung was more than 100 µM in each case. The TGI with SW-620 colon, in the experiment with K-562 leukemia, in the experiment on MCF7 breast, in the experiment on SK-OV-3 ovarian and with NCI-H522 lung was more than 100 µM each time.

With `COc1ccc2c(c1)CC[C@@H]1C2CC[C@]2(C)C(=O)N(CCN(C)C)C(=O)CC12` (stereo not given in full), the TGI with ACHN renal, with HS 578T breast, with HT29 colon, in the experiment on MDA-N, in the experiment with OVCAR-4 ovarian and in the experiment with NCI-H460 lung was more than 100 µM each time. The TGI in the experiment on SW-620 colon, with K-562 leukemia, in the experiment on MCF7 breast, in the experiment with SK-OV-3 ovarian and with NCI-H522 lung was more than 100 µM throughout.

As to `c1coc(-c2nccc3c2[nH]c2ccccc23)c1`, the TGI in the experiment on ACHN renal, in the experiment with HS 578T breast, in the experiment with HT29 colon, in the experiment on MDA-N, with OVCAR-4 ovarian and with NCI-H460 lung was more than 100 µM throughout. The TGI in the experiment on SW-620 colon, in the experiment with K-562 leukemia, in the experiment on MCF7 breast, in the experiment with SK-OV-3 ovarian and in the experiment with NCI-H522 lung was more than 100 µM each time.

Regarding `Cc1ncc([N+](=O)[O-])n1CC[N+](C)([O-])CCCCn1ccnc1[N+](=O)[O-]` (stereo not given), the TGI in the experiment on ACHN renal, with HS 578T breast, in the experiment with HT29 colon, in the experiment on MDA-N, in the experiment with OVCAR-4 ovarian and with NCI-H460 lung was more than 100 µM each time. For the same molecule, the TGI in the experiment on SW-620 colon, in the experiment with K-562 leukemia, in the experiment with MCF7 breast, in the experiment with SK-OV-3 ovarian and in the experiment with NCI-H522 lung was more than 100 µM each time.

On to `COC(=O)CNC(=O)C(Cc1ccccc1)NC(=O)c1ccc(-c2ccc(Cl)cc2Cl)o1` (stereo not given), for which the TGI with ACHN renal was 66.5 µM; in the experiment with HS 578T breast, 52.1 µM; with HT29 colon, 52.7 µM; in the experiment on MDA-N it was 86.8 µM; in the experiment with OVCAR-4 ovarian, more than 100 µM; in the experiment on NCI-H460 lung it was 40.3 µM. In addition, the TGI in the experiment with SW-620 colon was more than 100 µM; with K-562 leukemia it was more than 100 µM; with MCF7 breast, 62.1 µM; with SK-OV-3 ovarian it was 84.2 µM; in the experiment with NCI-H522 lung, 43.3 µM.

`COC(=O)Nc1nc2ccc(S(=O)(=O)Nc3ccccn3)cc2[nH]1`: the TGI in the experiment with ACHN renal, in the experiment with HS 578T breast, with HT29 colon, with MDA-N, in the experiment with OVCAR-4 ovarian and with NCI-H460 lung was more than 100 µM in each case. The TGI was 66.6 µM in the experiment on SW-620 colon; 75.9 µM in the experiment with K-562 leukemia; more than 100 µM in the experiment with MCF7 breast; more than 100 µM in the experiment on SK-OV-3 ovarian; more than 100 µM in the experiment on NCI-H522 lung.

Take `COc1cc(C2S/C(=C/c3ccccc3)C(=O)N2Cc2ccccc2)cc(OC)c1OC` (stereo not given): the TGI with ACHN renal was more than 100 µM; with HS 578T breast it was more than 100 µM; with HT29 colon, more than 100 µM; in the experiment on MDA-N it was 52.6 µM; with OVCAR-4 ovarian it was more than 100 µM; with K-562 leukemia it was more than 100 µM. Further, the figures for the TGI in the experiment on MCF7 breast, in the experiment with SK-OV-3 ovarian and with NCI-H522 lung were more than 100 µM, more than 100 µM and 62.8 µM, respectively.

With `CC(C)(C)COC(=O)C(C)(C)NC(=O)C(CC(=O)OCc1ccccc1)NC(=O)OCc1ccccc1` (stereo not given), the TGI in the experiment on ACHN renal is more than 100 µM; with HS 578T breast it was more than 100 µM; with HT29 colon, 87.9 µM; in the experiment on MDA-N, more than 100 µM; with OVCAR-4 ovarian, more than 100 µM; with NCI-H460 lung, more than 100 µM. The TGI in the experiment on SW-620 colon, in the experiment on K-562 leukemia, in the experiment with MCF7 breast, in the experiment on SK-OV-3 ovarian and in the experiment on NCI-H522 lung was more than 100 µM each time.

Source of the values: PubChem BioAssay (NCI).
